Patent EP1072673A2, “Perfume compositions” (THE PROCTER & GAMBLE COMPANY, priority 1999, dated 2001)

test: not given; conditions: pH 3.8

| Compound | bleach stability index (BSI) |
| --- | --- |
| C=CCOC(=O)COCCCCC [glycolic acid, 2-pentyloxy:allyl ester] | at least 80% |
| CCC(=O)OC1CC2CC1C1CC=CC21 (stereo not shown) [Frutene, tricyclo decenyl propionate] | at least 80% |

test: Bleach stability index (BSI) test: % AvO loss of perfumed bleach product in accelerated aging, by iodometric titration; conditions: perfume ingredient at 0.2% via AE3S in PAP finished product, pH 3.8; 2 weeks at 40°C; BSI of at least 80% = not more than 20% AvO loss
Protocol: For this test, the pure perfume chemicals to be tested were diluted at 0.2% via a solubiliser, namely C10-C18 sodium alkyl sulfate condensed with an average of three moles of ethylene oxide (AE3S), then incorporated in a finished product and then subjected to the accelerated aging test. The accelerated aging test is set up as follows: 15 to 20g of each of the finished product incorporating the perfume ingredient was taken and placed in an oven for 2 weeks at 40°C. The aged samples were compared versus freshly made perfumed product (The reference) by measuring the AvO before storage from the reference and after storage from the aged product and expressing the difference in AvO as % loss.
The loss of available oxygen (AvO) of a bleach-containing composition over time can be measured with the iodometric titration method in which the bleach is reduced by excess potassium iodide and the iodine formed is determined by titration with sodium thiosulphate.

| Compound | bleach stability index (BSI) |
| --- | --- |
| COC(=O)c1ccccc1N=CC1CCC(C)=CC1C (stereo not shown) [ligantraal, Methyl 2-((-1-(2,4-dimethyl-3-cyclohexenyl)methylidene)amino)-1-benzenecarboxylate] | at least 80% |
| O=c1ccc2ccccc2o1 [coumarin, 1,2-benzopyrone] | at least 80% |
| CCC/C=C/CO [trans-2-hexenol] | at least 80% |
| CC(=O)OCC=C(C)C [Prenyl acetate, 2-methylbuten-2-ol-4-acetate] | at least 80% |
| CC1(C)CCCC2=C1CC(C=O)CC2 (stereo not shown) [melafleur] | at least 80% |
| CCOC(=O)C1=C(C)C=CCC1(C)C [Ethyl safranate, ethyl 2,6,6-trimethyl-1,3-cyclohexdiene-1-carboxylate] | at least 80% |
| CC(=O)/C=C/C1C(C)=CCCC1(C)C (stereo not drawn) [ionone alpha] | at least 80% |
| CC1=CCC(CCC(C)C(C)O)C1(C)C (stereo not shown) [Sandalore, 5-(2,2,3-Trimethyl-3-cyclopentenyl)-3-methylpentan-2-ol] | at least 80% |
| CC=CC(=O)OC(C)CC(C)C (stereo not shown) [Frutinat.exp, 4-methyl-pentan-2-ol 2-butenoate] | at least 80% |
| C=CCCCCCCCCO [rosalva, 9-Decen-1-ol] | at least 80% |
| CC(C)=CCCC(C)CC=O (stereo not shown) [Citronellal, 3,7-Dimethyl-6-octen-1-al] | at least 80% |
| CCC=C(C)C(O)CCCCC (stereo not shown) [undecavertol, 4-Methyl-3-decen-5-ol] | at least 80% |
| CC1=CCC(CC#N)C1(C)C (stereo not shown) [cantryl] | at least 80% |
| C=CCOC(=O)COCCC(C)C [allyl amyl glycolate] | at least 80% |
| OC/C=C/c1ccccc1 [cinnamic alcohol] | at least 80% |
| C=CC(=C)CCCC(C)(C)OC(C)=O [Myrcenyl acetate crude, 3-methylene-7-methyl-1-octen-7-yl acetate] | at least 80% |
| C=CC(O)CCCCC (stereo not shown) [amyl vinyl carbinol] | at least 80% |
| CC=CC(=O)OC1CCCC1C1CCCC1 (stereo not shown) [2-cyclopentyl-cyclopentyl 2-butenoate] | at least 80% |
| CC=CC(=O)OCCCCCC [Hexyl crotonate, hexyl 2-butenoate] | at least 80% |
| CC=CC(=O)C1=C(C)CCCC1(C)C [2-Buten-1-one, 1-(2,6,6-trimethyl-1-cyclohexen-1-yl)-] | at least 80% |
| C=CC(C)CCCC(C)(C)O (stereo not shown) [Dihydro myrcenol, 2,6-dimethyl-7-octen-2-ol] | at least 80% |
| OCC=Cc1ccccc1 [3-Phenyl-2-propen-1-ol] | at least 80% |
| C=CC(C)(C#N)Cc1ccccc1 (stereo not shown) [2-Benzyl-2-methyl-3-butenenitril] | at least 80% |
| O=C1CCCC=CCCCCCCCCCC1 [ambretone] | at least 80% |

| Compound | bleach stability index (BSI) |
| --- | --- |
| CCC(=CCC1CC=C(C)C1(C)C)CO (stereo not shown) [Sanjinol, 2-Ethyl-4-(2,2,3-trimethyl-3-cyclopenten-1-yl)-2-buten-1-ol] | at least 80% |
| CC(C)C=CC(=O)CC(C)C [isotagetone 50, 2,7-Dimethyloct-5-en-4-one] | at least 80% |
| 2,5,10-Trimethyl-2,5,9-cyclododecatrien-1-yl methyl ketone & isomers [trimofix o] | at least 80% |
| CCCCCCC=CC(=O)OC [Beauvertate, methyl-2-nonenoate] | at least 80% |
| CC(C)=CCCC(C)CCO (stereo not shown) [citronellol, 3,7-dimethyl-6-octen-1-ol] | at least 80% |
| CC=C1CC2CC1C1CCCOC21 (stereo not shown) [5,8-Methano-2H-1-benzopyran, 6-ethylideneoctahydro-] | at least 80% |
| CC(C)=CCCC(C)=CC#N [3,7-dimethyl-2,6-octadienenitrile] | at least 80% |
| C=CCCCCCCCC=CCC#N [3,12-tridecadiene nitrile] | at least 80% |
| C/C=C(/C)C(=O)OCC(C)C [isobutyl angelate] | at least 80% |
| C=CC(C)(CCC=C(C)C)OC(C)=O (stereo not shown) [linalyl acetate] | at least 80% |
| CC(=O)OCCC(C)CCC=C(C)C (stereo not shown) [citronellyl acetate] | at least 80% |
| CC=CC(=O)C1C(C)=CCCC1(C)C (stereo not drawn) [alpha-damascone, 2-Buten-1-one, 1-(2,6,6-trimethyl-2-cyclohexen-1-yl)-] | at least 80% |
| CC(C)=CCOC(=O)c1ccccc1O [prenyl salicylate] | at least 80% |
| CC(=O)/C=C/C1=C(C)CCCC1(C)C [ionone beta] | at least 80% |
| CC1=CC(C)C(CO)CC1 (stereo not shown) [Floralol, dimethyl cyclohexene methanol] | at least 80% |
| C=CC(C)(O)CCC=C(C)C (stereo not shown) [Linalool, 3,7-Dimethyl-1,6-octadien-3-ol] | at least 80% |
| CC(CO)CC(C)c1ccccc1 (stereo not shown) [2-Methyl-4-phenyl-1-pentanol] | at least 80% |
| CCC/C=C/C=O [trans-2-hexenal] | at least 80% |
| CCCCCCC(C=O)=Cc1ccccc1 [hexyl cinnamic aldehyde] | at least 80% |
| CCCC(C)C=Nc1ccccc1C(=O)OC (stereo not shown) [mevantraal (q), Methyl 2-((-2-methylpentylidene)amino)-1-benzenecarboxylate] | at least 80% |
| CC(C)(O)CCCC1=CCC(C=O)CC1 (stereo not shown) [lyral] | at least 80% |
| C=C(C=O)C(C)CCC=C(C)C (stereo not shown) [bergamal] | at least 80% |
| CC(C)CCCC1=CCC(C)(C=O)CC1 (stereo not shown) [1-Methyl-4-(4-methylpentyl)-3-cyclohexenecarbaldehyde] | at least 80% |
